ChEMBL document CHEMBL1152667, “Synthesis and radiopharmacological investigation of 3-[4'-[(18)F]fluorobenzylidene]indolin-2-one as possible tyrosine kinase inhibitor” (Bioorg Med Chem, 2009)

Assays:
Pancreas [1] = assay: Biodistribution in Wistar rat pancreas at 1.7 MBq, iv administered as single dose measured after 60 mins post-injection by gamma counting; type: ADME, organism-based; conditions: in vivo, 1 h
Blood [2] = assay: Metabolic stability in Wistar rat blood at 30 MBq, iv after 60 mins by radio-HPLC analysis; type: ADME, organism-based; conditions: in vivo, 1 h
Heart [3] = assay: Biodistribution in Wistar rat heart assessed as standard uptake value at 1.7 MBq, iv administered as single dose measured after 60 mins post-injection by gamma counting; type: ADME, organism-based; conditions: in vivo, 1 h
Adrenal gland [4] = assay: Biodistribution in Wistar rat adrenal gland assessed as standard uptake value at 1.7 MBq, iv administered as single dose measured after 5 mins post-injection by gamma counting; type: ADME, organism-based; conditions: in vivo
Femur [5] = assay: Biodistribution in Wistar rat femur at 1.7 MBq, iv administered as single dose measured after 10 mins post-injection by gamma counting; type: ADME, organism-based; conditions: in vivo
Kidney [6] = assay: Biodistribution in Wistar rat kidney assessed as standard uptake value at 1.7 MBq, iv administered as single dose measured after 5 mins post-injection by gamma counting; type: ADME, organism-based; conditions: in vivo
Lung [7] = assay: Biodistribution in Wistar rat lung assessed as standard uptake value at 1.7 MBq, iv administered as single dose measured after 1 min post-injection by gamma counting; type: ADME, organism-based; conditions: in vivo
Liver [8] = assay: Biodistribution in Wistar rat liver at 1.7 MBq, iv administered as single dose measured after 30 mins post-injection by gamma counting; type: ADME, organism-based; conditions: in vivo, 0.5 h
Brain [9] = assay: Biodistribution in Wistar rat brain at 1.7 MBq, iv administered as single dose measured after 10 mins post-injection by gamma counting; type: ADME, organism-based; conditions: in vivo
[10] = Biodistribution in Wistar rat urine at 1.7 MBq, iv administered as single dose measured after 60 mins post-injection by gamma counting; type: ADME, organism-based; conditions: in vivo, 1 h
[11] = Ratio of drug level in kidney to blood in Wistar rat at 1.7 MBq, iv administered as single dose measured after 5 mins post-injection; type: ADME, organism-based
Spleen [12] = assay: Biodistribution in Wistar rat spleen at 1.7 MBq, iv administered as single dose measured after 10 mins post-injection by gamma counting; type: ADME, organism-based; conditions: in vivo
[13] = Biodistribution in Wistar rat thyroid gland at 1.7 MBq, iv administered as single dose measured after 60 mins post-injection by gamma counting; type: ADME, organism-based; conditions: in vivo, 1 h
[14] = Biodistribution in Wistar rat brown adipose tissue assessed as standard uptake value at 1.7 MBq, iv administered as single dose measured after 60 mins post-injection by gamma counting; type: ADME, organism-based; conditions: in vivo, 1 h
[15] = Ratio of drug level in pancreas to blood in Wistar rat at 1.7 MBq, iv administered as single dose measured after 5 mins post-injection; type: ADME, organism-based
Adrenal gland [16] = assay: Biodistribution in Wistar rat adrenal gland at 1.7 MBq, iv administered as single dose measured after 5 mins post-injection by gamma counting; type: ADME, organism-based; conditions: in vivo
Testes = assay: Biodistribution in Wistar rat testes at 1.7 MBq, iv administered as single dose measured after 5 mins post-injection by gamma counting; type: ADME, organism-based, Testis; conditions: in vivo
Spleen [17] = assay: Biodistribution in Wistar rat spleen assessed as standard uptake value at 1.7 MBq, iv administered as single dose measured after 30 mins post-injection by gamma counting; type: ADME, organism-based; conditions: in vivo, 0.5 h
Pancreas [18] = assay: Biodistribution in Wistar rat pancreas at 1.7 MBq, iv administered as single dose measured after 30 mins post-injection by gamma counting; type: ADME, organism-based; conditions: in vivo, 0.5 h
Spleen [19] = assay: Biodistribution in Wistar rat spleen at 1.7 MBq, iv administered as single dose measured after 1 min post-injection by gamma counting; type: ADME, organism-based; conditions: in vivo
[20] = Phase 1 elimination half life in Wistar rat at 30 MBq, iv by radio-HPLC analysis; type: ADME, organism-based; conditions: in vivo, read-out: beta t1/2 (converted)
Harderian gland = assay: Biodistribution in Wistar rat harderian gland at 1.7 MBq, iv administered as single dose measured after 5 mins post-injection by gamma counting; type: ADME, organism-based; conditions: in vivo
[21] = Biodistribution in Wistar rat adipose tissue assessed as standard uptake value at 1.7 MBq, iv administered as single dose measured after 10 mins post-injection by gamma counting; type: ADME, organism-based; conditions: in vivo
Blood [22] = assay: Biodistribution in Wistar rat blood assessed as standard uptake value at 1.7 MBq, iv administered as single dose measured after 1 min post-injection by gamma counting; type: ADME, organism-based; conditions: in vivo
[23] = Biodistribution in Wistar rat adipose tissue assessed as standard uptake value at 1.7 MBq, iv administered as single dose measured after 60 mins post-injection by gamma counting; type: ADME, organism-based; conditions: in vivo, 1 h
Adrenal gland [24] = assay: Biodistribution in Wistar rat adrenal gland at 1.7 MBq, iv administered as single dose measured after 30 mins post-injection by gamma counting; type: ADME, organism-based; conditions: in vivo, 0.5 h
Liver [25] = assay: Biodistribution in Wistar rat liver assessed as standard uptake value at 1.7 MBq, iv administered as single dose measured after 1 min post-injection by gamma counting; type: ADME, organism-based; conditions: in vivo
Thymus [26] = assay: Biodistribution in Wistar rat thymus at 1.7 MBq, iv administered as single dose measured after 5 mins post-injection by gamma counting; type: ADME, organism-based; conditions: in vivo
Femur [27] = assay: Biodistribution in Wistar rat femur assessed as standard uptake value at 1.7 MBq, iv administered as single dose measured after 5 mins post-injection by gamma counting; type: ADME, organism-based; conditions: in vivo
Thymus [28] = assay: Biodistribution in Wistar rat thymus at 1.7 MBq, iv administered as single dose measured after 30 mins post-injection by gamma counting; type: ADME, organism-based; conditions: in vivo, 0.5 h
[29] = Ratio of drug level in adrenal gland to blood in Wistar rat at 1.7 MBq, iv administered as single dose measured after 5 mins post-injection; type: ADME, organism-based
[30] = Biodistribution in Wistar rat thyroid gland assessed as standard uptake value at 1.7 MBq, iv administered as single dose measured after 5 mins post-injection by gamma counting; type: ADME, organism-based; conditions: in vivo
Femur [31] = assay: Biodistribution in Wistar rat femur at 1.7 MBq, iv administered as single dose measured after 30 mins post-injection by gamma counting; type: ADME, organism-based; conditions: in vivo, 0.5 h
Adrenal gland [32] = assay: Biodistribution in Wistar rat adrenal gland assessed as standard uptake value at 1.7 MBq, iv administered as single dose measured after 60 mins post-injection by gamma counting; type: ADME, organism-based; conditions: in vivo, 1 h
[33] = Biodistribution in Wistar rat brown adipose tissue assessed as standard uptake value at 1.7 MBq, iv administered as single dose measured after 10 mins post-injection by gamma counting; type: ADME, organism-based; conditions: in vivo
Kidney [34] = assay: Biodistribution in Wistar rat kidney assessed as standard uptake value at 1.7 MBq, iv administered as single dose measured after 60 mins post-injection by gamma counting; type: ADME, organism-based; conditions: in vivo, 1 h
Femur [35] = assay: Biodistribution in Wistar rat femur assessed as standard uptake value at 1.7 MBq, iv administered as single dose measured after 60 mins post-injection by gamma counting; type: ADME, organism-based; conditions: in vivo, 1 h
Brain [36] = assay: Biodistribution in Wistar rat brain assessed as standard uptake value at 1.7 MBq, iv administered as single dose measured after 1 min post-injection by gamma counting; type: ADME, organism-based; conditions: in vivo
Lung [37] = assay: Biodistribution in Wistar rat lung at 1.7 MBq, iv administered as single dose measured after 60 mins post-injection by gamma counting; type: ADME, organism-based; conditions: in vivo, 1 h
[38] = Biodistribution in Wistar rat stomach at 1.7 MBq, iv administered as single dose measured after 5 mins post-injection by gamma counting; type: ADME, organism-based; conditions: in vivo
Heart [39] = assay: Biodistribution in Wistar rat heart at 1.7 MBq, iv administered as single dose measured after 1 min post-injection by gamma counting; type: ADME, organism-based; conditions: in vivo
[40] = Metabolic stability in Wistar rat blood assessed as compound remaining at 30 MBq, iv after 5 mins by radio-HPLC analysis; type: ADME, organism-based; conditions: read-out: Stability
Lung [41] = assay: Biodistribution in Wistar rat lung assessed as standard uptake value at 1.7 MBq, iv administered as single dose measured after 10 mins post-injection by gamma counting; type: ADME, organism-based; conditions: in vivo

O=C1Nc2ccccc2/C1=C/c1ccc([18F])cc1
Drug uptake (Pancreas [1]): 0.07 %ID
Stability (Blood [2]): Unstable
SUV (Heart [3]): 0.2%
SUV (Adrenal gland [4]): 5.71%
Drug uptake (Femur [5]): 0.32 %ID
SUV (Kidney [6]): 2.64%
SUV (Lung [7]): 4.26%
Drug uptake (Liver [8]): 8.95 %ID
Drug uptake (Brain [9]): 1.09 %ID
Drug uptake [10]: 43.53 %ID
Kp at 5 min [11]: 4.7
Drug uptake (Spleen [12]): 0.14 %ID
Drug uptake [13]: 0.01 %ID
SUV [14]: 0.63%
Kp at 5 min [15]: 3
Drug uptake (Adrenal gland [16]): 0.17 %ID
Drug uptake (Testes): 0.38 %ID
SUV (Spleen [17]): 0.28%
Drug uptake (Pancreas [18]): 0.11 %ID
Drug uptake (Spleen [19]): 0.31 %ID
half-life [20]: 8 s
Drug uptake (Harderian gland): 0.34 %ID
SUV [21]: 1.26%
SUV (Blood [22]): 0.83%
SUV [23]: 1.15%
Drug uptake (Adrenal gland [24]): 0.04 %ID
SUV (Liver [25]): 2.98%
Drug uptake (Thymus [26]): 0.34 %ID
SUV (Femur [27]): 0.64%
Drug uptake (Thymus [28]): 0.08 %ID
Kp at 5 min [29]: 10.2
SUV [30]: 0.99%
Drug uptake (Femur [31]): 0.13 %ID
SUV (Adrenal gland [32]): 1.11%
SUV [33]: 1.83%
SUV (Kidney [34]): 0.99%
SUV (Femur [35]): 0.19%
SUV (Brain [36]): 2.84%
Drug uptake (Lung [37]): 0.19 %ID
Drug uptake [38]: 0.94 %ID
Drug uptake (Heart [39]): 1.01 %ID
remaining at 5 min [40]: 40%
SUV (Lung [41]): 0.85%
